ChEMBL document CHEMBL1159182, “SAR of cocaine: further exploration of structural variations at the C-2 center provides compounds of subnanomolar binding potency” (Bioorg Med Chem Lett, 1993)
Values joined by “and” are separate entries in the source; they are usually repeats but may differ in a detail not shown here. Equal values may be shown once.

How the values were obtained:
[1] = target: T1, Sodium-dependent dopamine transporter (Homo sapiens, UniProt Q01959); assay: Displacement of [3H]mazindol from dopamine transporter
T1 sequence (Q01959 whole entry): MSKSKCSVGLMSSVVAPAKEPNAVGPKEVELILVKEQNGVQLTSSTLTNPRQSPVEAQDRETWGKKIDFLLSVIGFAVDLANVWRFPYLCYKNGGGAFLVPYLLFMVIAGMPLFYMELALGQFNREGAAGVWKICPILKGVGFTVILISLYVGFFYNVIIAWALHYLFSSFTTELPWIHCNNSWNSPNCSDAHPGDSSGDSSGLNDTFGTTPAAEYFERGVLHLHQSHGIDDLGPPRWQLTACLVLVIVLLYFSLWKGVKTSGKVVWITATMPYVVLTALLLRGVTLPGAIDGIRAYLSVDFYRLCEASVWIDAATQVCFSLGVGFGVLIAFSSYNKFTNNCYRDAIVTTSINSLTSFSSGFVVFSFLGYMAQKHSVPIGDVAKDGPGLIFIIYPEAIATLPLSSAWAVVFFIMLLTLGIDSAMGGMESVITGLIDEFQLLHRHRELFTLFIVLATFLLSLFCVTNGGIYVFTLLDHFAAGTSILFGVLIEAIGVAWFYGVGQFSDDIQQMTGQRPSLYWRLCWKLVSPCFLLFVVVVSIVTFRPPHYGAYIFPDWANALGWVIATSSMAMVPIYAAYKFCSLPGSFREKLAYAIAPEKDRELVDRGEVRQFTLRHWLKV

[2] = target: T1, Sodium-dependent dopamine transporter; assay: Inhibitory concentration against [3H]dopamine uptake; type: functional
[3] = target: T1, Sodium-dependent dopamine transporter; assay: Ability to displace [3H]-Mazindol from dopamine receptor
[4] = target: T1, Sodium-dependent dopamine transporter; assay: Ability to displace [3H]mazindol to dopamine receptor; not being isolated
[5] = target: T1, Sodium-dependent dopamine transporter; assay: Inhibitory concentration required for [3H]dopamine uptake; not being isolated; type: functional
[6] = target: T1, Sodium-dependent dopamine transporter; assay: Ability to displace [3H]mazindol from dopamine transporter
[7] = target: T1, Sodium-dependent dopamine transporter; assay: Binding constant for [3H]dopamine uptake was calculated from the Cheng-Prusoff relationship
[8] = target: T1, Sodium-dependent dopamine transporter; assay: Binding constant for the ability to displace [3H]mazindol to dopamine receptor was calculated from the Cheng-Prusoff relationship

Row | Structure (SMILES) | IC50 [1] | IC50 [2] | further results
1 | CN1C2CCC1[C@H](/C=C/Cl)[C@@H](c1ccc(Cl)cc1)C2 (stereo partly specified) | 24 nM and 18 nM | 19 nM and 16 nM | 
2 | CC[C@@H]1C2CCC(C[C@@H]1c1ccc(Cl)cc1)N2C (stereo partly specified) | 3.5 nM | 2.6 nM | 
3 | CN1C2CCC1[C@@H]([C@@H](O)C(F)(F)F)[C@@H](c1ccc(Cl)cc1)C2 (stereo partly specified) | 9.2 nM | 10.5 nM | 
4 | C=C[C@@H]1C2CCC(C[C@@H]1c1ccc(Cl)cc1)N2C (stereo partly specified) |  | 2.8 nM | IC50 [3]: 1.2 nM
5 | CN1C2CCC1[C@@H](C(=O)C(F)(F)F)[C@@H](c1ccc(Cl)cc1)C2 (stereo partly specified) |  |  | IC50 [4]: not isolated; IC50 [5]: not isolated
6 | CN1C2CCC1[C@H](C(=O)C(F)(F)F)[C@@H](c1ccc(Cl)cc1)C2 (stereo partly specified) | 1190 nM | 377 nM | 
7 | CN1C2CCC1[C@@H]([C@H](O)C(F)(F)F)[C@@H](c1ccc(Cl)cc1)C2 (stereo partly specified) |  |  | IC50 [4]: not isolated; IC50 [5]: not isolated
8 | COC(=O)C1C2CC[C@H](C[C@@H]1c1ccc(Cl)cc1)N2C (stereo partly specified) |  | 3.2 nM | IC50 [6]: 1.7 nM
9 | CN1C2CCC1[C@@H](/C=C/Cl)[C@@H](c1ccc(Cl)cc1)C2 (stereo in doubt; 4) | 0.73 nM | 1.3 nM | 
10 | CN1C2CCC1[C@@H](/C=C/Cl)[C@@H](c1ccc(Cl)cc1)C2 (stereo in doubt; 5) | 0.36 nM | 0.99 nM | Ki [7]: 0.88 nM; Ki [8]: 0.22 nM
11 | CN1C2CCC1[C@H](C(O)C(F)(F)F)[C@@H](c1ccc(Cl)cc1)C2 (stereo in doubt; 12) | 166 nM | 125 nM | 
12 | CN1C2CCC1[C@H](C(O)C(F)(F)F)[C@@H](c1ccc(Cl)cc1)C2 (stereo in doubt; 13) | 1100 nM | 525 nM | 
